As a reminder, the Kp is the ratio of the level in a tissue or fluid to that in plasma or blood. A word on the IC50: it is the concentration needed to halve the response being measured.

Series [1] in a line: Pharmacokinetics test in mice (plasma and brain concentration, LC/MS/MS). It is filed as in vivo. The settings on record: mouse; male BALB/c mice; oral 10 mg/kg; two hours after administration; concentration in brain homogenate standardized with concentration in plasma. On the procedure:
Two hours after oral administration of the test compound (10 mg/kg) to male BALB/c mice, blood was collected from the posterior vena cava under isoflurane anesthesia, and plasma was obtained by centrifugation. In addition, the brain was collected after euthanasia by exsanguination, and distilled water was added to the obtained brain sample in an amount four times the wet weight of the brain to prepare a 20% homogenate. The compound concentrations in the obtained plasma and brain homogenate were measured by LC/MS/MS. The central transfer parameter Kp, brain was calculated by standardizing the concentration in the brain homogenate with the concentration in plasma. In the table, Ex indicates the example number. […].

Series [2] concerns the target T1, NLRP3 inflammasome (Homo sapiens, UniProt Q96P20).
T1 construct: endogenous in cells; host or cells: THP-1 (human monocyte-derived), PMA-differentiated, Nigericin-stimulated
As to the kind of experiment: In vitro IL-1β production test (PMA-differentiated THP-1 cells, Nigericin stimulation, AlphaLISA). It counts as cell-based. The settings on record: inhibition of IL-1β production; THP-1 cells differentiated with 200 nM PMA; 0.015 mM Nigericin; 2 hours. Summed up: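 THP-1 cells were differentiated one day with 200 nM PMA, then given serum-free medium with 0.015 mM nigericin plus compound for 2 h. Supernatant IL-1β was measured by AlphaLISA, with nigericin alone as 0% and unstimulated as 100% inhibition. IC50 came from logistic sigmoid fitting.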
(Alpha assays give light when donor and acceptor beads are brought close together.)

T1 sequence (Q96P20 whole entry): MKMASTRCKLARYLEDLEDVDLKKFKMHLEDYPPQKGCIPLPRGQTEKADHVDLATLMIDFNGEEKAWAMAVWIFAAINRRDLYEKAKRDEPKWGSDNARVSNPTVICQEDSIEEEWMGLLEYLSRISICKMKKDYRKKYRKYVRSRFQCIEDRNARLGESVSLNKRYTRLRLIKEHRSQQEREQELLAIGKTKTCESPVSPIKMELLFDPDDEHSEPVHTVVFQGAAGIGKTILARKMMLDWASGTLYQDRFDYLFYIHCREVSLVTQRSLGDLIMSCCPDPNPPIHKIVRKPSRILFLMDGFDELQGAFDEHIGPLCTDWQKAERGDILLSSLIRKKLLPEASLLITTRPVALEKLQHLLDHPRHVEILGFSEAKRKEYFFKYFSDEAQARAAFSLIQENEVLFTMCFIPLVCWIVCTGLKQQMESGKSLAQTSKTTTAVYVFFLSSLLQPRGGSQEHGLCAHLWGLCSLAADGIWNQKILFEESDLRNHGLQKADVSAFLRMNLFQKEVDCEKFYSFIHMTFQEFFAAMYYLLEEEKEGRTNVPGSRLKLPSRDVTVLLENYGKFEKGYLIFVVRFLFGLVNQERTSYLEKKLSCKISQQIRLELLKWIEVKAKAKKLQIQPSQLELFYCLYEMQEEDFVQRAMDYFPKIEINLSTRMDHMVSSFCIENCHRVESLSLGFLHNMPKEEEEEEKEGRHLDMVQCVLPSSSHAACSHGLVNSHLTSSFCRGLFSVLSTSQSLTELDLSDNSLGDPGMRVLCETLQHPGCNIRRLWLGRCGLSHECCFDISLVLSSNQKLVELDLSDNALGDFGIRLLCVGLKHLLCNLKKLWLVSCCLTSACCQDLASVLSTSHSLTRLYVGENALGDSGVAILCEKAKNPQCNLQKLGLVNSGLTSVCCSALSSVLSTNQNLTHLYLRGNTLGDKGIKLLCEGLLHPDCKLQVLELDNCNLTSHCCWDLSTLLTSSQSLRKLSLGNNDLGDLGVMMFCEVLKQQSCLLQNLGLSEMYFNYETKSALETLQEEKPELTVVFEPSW

As for `Cc1cc(C(F)(F)F)cc(O)c1-c1cc2ccn([C@H]3C[C@@](C)(O)C3)c2nn1` [Example 3, 2-{7-[(1s,3s)-3-hydroxy-3-methylcyclobutyl]-7H-pyrrolo[2,3-c]pyridazin-3-yl}-3-methyl-5-(trifluoromethyl)phenol], the Kp at 2 h in series [1] was found to be 1.1. Further, in series [2], the IC50 is 52.5 nM. The corresponding values for `Cc1cc(C(F)(F)F)cc(O)c1-c1cc2c(C)cn([C@H]3C[C@@](C)(O)C3)c2nn1` [Example 4, 2-{7-[(1s,3s)-3-hydroxy-3-methylcyclobutyl]-5-methyl-7H-pyrrolo[2,3-c]pyridazin-3-yl}-3-methyl-5-(trifluoromethyl)phenol] are 0.65 and 19.8 nM.

Take `Cc1cc(C(F)(F)F)cc(O)c1-c1cc2c(F)cn([C@H]3C[C@@](C)(O)C3)c2nn1` [Example 5, 2-{5-fluoro-7-[(1s,3s)-3-hydroxy-3-methylcyclobutyl]-7H-pyrrolo[2,3-c]pyridazin-3-yl}-3-methyl-5-(trifluoromethyl)phenol]: in series [1], the Kp at 2 h came out at 1.68. The molecule further yielded an IC50 in series [2] of 31.3 nM. Take `COc1cn([C@H]2C[C@@](C)(O)C2)c2nnc(-c3c(C)cc(C(F)(F)F)cc3O)cc12` [Example 10, 2-{7-[(1s,3s)-3-hydroxy-3-methylcyclobutyl]-5-methoxy-7H-pyrrolo[2,3-c]pyridazin-3-yl}-3-methyl-5-(trifluoromethyl)phenol]: the Kp at 2 h in series [1] stood at 0.7. In series [2], this molecule displayed an IC50 of 23.7 nM. For `Cc1cc(C(F)(F)F)cc(O)c1-c1cc2c(OC(F)F)cn([C@H]3C[C@@](C)(O)C3)c2nn1` [Example 21, 2-{5-(difluoromethoxy)-7-[(1s,3s)-3-hydroxy-3-methylcyclobutyl]-7H-pyrrolo[2,3-c]pyridazin-3-yl}-3-methyl-5-(trifluoromethyl)phenol], in that order: 0.83 and 19.8 nM. For `Cc1cc(Cl)cc(O)c1-c1cc2c(F)cn([C@H]3C[C@@](C)(O)C3)c2nn1` [Example 27, 5-chloro-2-{5-fluoro-7-[(1s,3s)-3-hydroxy-3-methylcyclobutyl]-7H-pyrrolo[2,3-c]pyridazin-3-yl}-3-methylphenol], in that order: 0.92 and 25.6 nM. `Cc1cc(C(F)(F)F)cc(O)c1-c1cc2ccn(C34CCCC(O)(C3)C4)c2nn1` [Example 88, 5-{3-[2-hydroxy-6-methyl-4-(trifluoromethyl)phenyl]-7H-pyrrolo[2,3-c]pyridazin-7-yl}bicyclo[3.1.1]heptan-1-ol] returned an IC50 in series [2] of 43.1 nM.

In series [2], `Cc1cc(C(F)(F)F)cc(O)c1-c1cc2ccn(C[C@H](C)O)c2nn1` [Example 89, 2-{7-[(28)-2-hydroxypropyl]-7H-pyrrolo[2,3-c]pyridazin-3-yl}-3-methyl-5-(trifluoromethyl)phenol] registered an IC50 of 138 nM. The same measure, in the same setting: the value for `Cc1cc(C)c(-c2cc3c(C)cn([C@H]4C[C@@](C)(O)C4)c3nn2)c(O)c1` [Example 90, 2-{7-[(1s,3s)-3-hydroxy-3-methylcyclobutyl]-5-methyl-7H-pyrrolo[2,3-c]pyridazin-3-yl}-3,5-dimethylphenol] was 56.5 nM; that for `Cc1cc(F)cc(O)c1-c1cc2c(C)cn([C@H]3C[C@@](C)(O)C3)c2nn1` [Example 91, 5-fluoro-2-{7-[(1s,3s)-3-hydroxy-3-methylcyclobutyl]-5-methyl-7H-pyrrolo[2,3-c]pyridazin-3-yl}-3-methylphenol] was 125 nM. On the same count and under the same terms, the value for `Cc1cc(C(F)F)cc(O)c1-c1cc2c(C)cn([C@H]3C[C@@](C)(O)C3)c2nn1` [Example 92, 5-(difluoromethyl)-2-{7-[(1s,3s)-3-hydroxy-3-methylcyclobutyl]-5-methyl-7H-pyrrolo[2,3-c]pyridazin-3-yl}-3-methylphenol] was 59.2 nM; that for `Cc1cc(C(F)(F)F)cc(O)c1-c1cc2c3c(n([C@H]4C[C@@](C)(O)C4)c2nn1)COC3` [Example 99, 2-{8-[(1s,3s)-3-hydroxy-3-methylcyclobutyl]-7,8-dihydro-5H-furo[3′,4′:4,5]pyrrolo[2,3-c]pyridazin-3-yl}-3-methyl-5-(trifluoromethyl)phenol] was 9.53 nM.

(Values after patent US20260226065A1, “SUBSTITUTED BENZENE COMPOUND” (DAIICHI SANKYO COMPANY, LIMITED, priority 2023, published 2026).)
